Like-named read-outs stand apart in the source and are kept apart here.
Experiments:
[1] = test system: hepatic microsomes of humans; conditions: DBC metabolism, human hepatic microsomes, MM model; cited from earlier work
[2] = cited from earlier work
[3] = Pharmacokinetics in mice after oral gavage of 15 mg/kg DBC; format: in vivo, female B6129SF1/J mice
[4] = test system: mice; conditions: cited from earlier work
[5] = test system: hepatic microsomes of mice; conditions: cited from earlier work
[6] = Pharmacokinetics in human volunteers after oral microdose of 29 ng [14C]-DBC; format: in vivo
[7] = average of human volunteers, 29 ng DBC oral
[8] = DBC metabolism, mouse hepatic microsomes, MM model

c1ccc2c(c1)cc1ccc3cccc4c5ccccc5c2c1c34 [DBC, dibenzo[def,p]chrysene]
Km [1]: 0.915 µM | Vmax [1]: 0.27 nmol/min/mg | Peak concentration in blood [2, 7]: 74.8 fM | time of peak concentration in blood [2, 7]: around 1 hr | Eliminated Total (sum of all DBC metabolites excreted in urine) ([2]; volunteer V5, oral dose 25.2 ng): 0.532 ng 14C-DBCeq | Eliminated Total (sum of all DBC metabolites excreted in urine) ([2]; volunteer V6, oral dose 29.8 ng): 0.441 ng 14C-DBCeq | Eliminated Total (sum of all DBC metabolites excreted in urine) ([2]; volunteer V8, oral dose 23.9 ng): 0.285 ng 14C-DBCeq | Eliminated Total (sum of all DBC metabolites excreted in urine) ([2]; volunteer V9, oral dose 28.5 ng): 0.200 ng 14C-DBCeq | Eliminated Total (sum of all DBC metabolites excreted in urine) ([2]; volunteer V10, oral dose 25.6 ng): 0.494 ng 14C-DBCeq | Eliminated Total (sum of all DBC metabolites excreted in urine) ([2]; volunteer V13, oral dose 28.5 ng): 0.263 ng 14C-DBCeq | Peak concentration in blood ([2]; volunteers 8 and 9 (both), 29 ng DBC oral): ~ 100 fM | time of peak concentration in blood ([2]; volunteers 8 and 9, 29 ng DBC oral): 1 to 2 h | Peak concentration in blood ([3]; 15 mg/kg DBC oral): around 3.5 μM | concentration in blood at 48 hr post dosing ([3]; 15 mg/kg DBC oral): approximately 0.0075 μM | levels detected in urine ([3]; 15 mg/kg DBC oral): trace levels | time of peak concentration in blood ([3]; 15 mg/kg DBC oral): 3 to 5 h | percent of administered dose absorbed (amount of dose recovered in urine) ([3]; 15 mg/kg oral, used as model parameter): 0.311 | transplacental carcinogenicity ([4]; B6129F1/J mice, offspring of mothers exposed to DBC): cause T-cell lymphoma, lung adenoma and liver lesions in offspring | potency in producing lung adenomas relative to benzo[a]pyrene (B[a]P) [4]: 100 times | tumors after intraperitoneal exposure ([4]; mice exposed intraperitoneally): lung and liver cancer | tumors after dermal exposure ([4]; mice, dermal exposure): cause skin tumors | tumors after intramammary exposure ([4]; mice, intramammary exposure): promote mammary tumors | Km [5, 8]: 6.63 µM | Vmax [5, 8]: 19.38 nmol/min/mg | DBC metabolism rate, mice compared to humans ([5]; after scaling to body weight to the ¾ power): 3 fold | % Excreted ([6]; Average of volunteers, urine): 1.39% | peak concentration relative to peak DBC-11,12-diol concentration [6, 7]: 10 times | % Excreted ([6]; volunteer V5, urine): 2.11% | % Excreted ([6]; volunteer V6, urine): 1.48% | % Excreted ([6]; volunteer V8, urine): 1.20% | % Excreted ([6]; volunteer V9, urine): 0.70% | % Excreted ([6]; volunteer V10, urine): 1.93% | % Excreted ([6]; volunteer V13, urine): 0.92%

Oc1c(O)c(O)c2c(cc3ccc4cccc5c6ccccc6c2c3c45)c1O [DBC-tetrols, dibenzo[def,p]chrysene-11,12,13,14-tetraol]
mean amount in urine relative to conjugated DBC-11,12-diol ([3]; 15 mg/kg DBC oral, 0–16 hr collection interval): 98.9 times
